Laboratory results reported in the supplement of paper PMC11061612.

Key:
Assay in all cases: Bliss excess, mean over the matrix (fraction); higher = more synergy
IST-MEL1 (Melanoma) = system: IST-MEL1 (Melanoma)
In short: (§1)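 Cell lines in DMEM/F12 or RPMI with 10% FBS were plated in 1536-well plates, held 24 hours at 37°C, 5% CO2, then given two-drug dose matrices for 72 hours (DMSO typically 0.2%). Viability was read by CellTiter-Glo 2.0 luminescence and scaled as inhibition from 0 (vehicle wells) to 1 (blank wells). Combination Emax is the second-highest inhibition in the matrix; Bliss excess is observed combination effect minus expected EA + EB − EA·EB, EA and EB being single-agent effects.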

[1] = system: LCLC-103H (Non-Small Cell Lung Carcinoma)
In short: as §1

[2] = system: LS-1034 (Colorectal Carcinoma)
In short: as §1

[3] = system: MM1S (Plasma Cell Myeloma)
In short: as §1

NB1 (Neuroblastoma) = system: NB1 (Neuroblastoma)
In short: as §1

[4] = system: NCI-H1876 (Small Cell Lung Carcinoma)
In short: as §1

[5] = system: NCI-H1963 (Small Cell Lung Carcinoma)
In short: as §1

NCI-H226 (Mesothelioma) = system: NCI-H226 (Mesothelioma)
In short: as §1

NCI-H2373 (Mesothelioma) = system: NCI-H2373 (Mesothelioma)
In short: as §1

[6] = system: OAW-28 (Ovarian Carcinoma)
In short: as §1

[7] = system: OVCAR-3 (Ovarian Carcinoma)
In short: as §1

[8] = system: SAT (Head and Neck Carcinoma)
In short: as §1

[9] = system: SK-CO-1 (Colorectal Carcinoma)
In short: as §1

[10] = system: SNU-407 (Colorectal Carcinoma)
In short: as §1

[11] = system: SUP-M2 (T-Cell Non-Hodgkin's Lymphoma)
In short: as §1

[12] = system: SiHa (Cervical Carcinoma)
In short: as §1

T47D (Breast Carcinoma) = system: T47D (Breast Carcinoma)
In short: as §1

[13] = system: T84 (Colorectal Carcinoma)
In short: as §1

[14] = system: ZR-75-30 (Breast Carcinoma)
In short: as §1

SMILES | Bliss excess (IST-MEL1 (Melanoma)) | Bliss excess [1] | Bliss excess [2] | Bliss excess [3] | Bliss excess (NB1 (Neuroblastoma)) | Bliss excess [4] | Bliss excess [5] | Bliss excess (NCI-H226 (Mesothelioma)) | Bliss excess (NCI-H2373 (Mesothelioma)) | Bliss excess [6] | Bliss excess [7] | Bliss excess [8] | Bliss excess [9] | Bliss excess [10] | Bliss excess [11] | Bliss excess [12] | Bliss excess (T47D (Breast Carcinoma)) | Bliss excess [13] | Bliss excess [14]
Cn1cnc2c(F)c(Nc3ccc(Br)cc3Cl)c(C(=O)NOCCO)cc21 [Selumetinib] + C=CCn1c(=O)c2cnc(Nc3ccc(N4CCN(C)CC4)cc3)nc2n1-c1cccc(C(C)(C)O)n1 [AZD1775] (first compound max 10 µM, partner max 1 µM) | 0.0242 | -0.0316 | -0.038 | -0.0433 | -0.0731 | -0.021 | -0.0834 | -0.0331 | -0.101 | -0.0604 | -0.0737 | -0.0151 | -0.0579 | 0.0099 | 0.0582 | -0.0422 | -0.0179 | -0.0495 | -0.0587
Cn1cnc2c(F)c(Nc3ccc(Br)cc3Cl)c(C(=O)NOCCO)cc21 [Selumetinib] + CC(C)n1c(=O)n(C)c2cnc3cc(F)c(-c4ccc(OCCCN5CCCCC5)nc4)cc3c21 [AZD1390] (first compound max 10 µM, 7x7, partner max 0.3 µM) | -0.013 | -0.0154 | -0.0198 | 0.0258 | -0.0646 | 0.0068 | 0.0154 | -0.0344 | -0.0044 | 0.0193 | -0.0387 | 0.0022 | -0.0168 | -0.0235 | 0.007 | -0.018 | -0.0468 | -0.0265 | -0.044
Cn1cnc2c(F)c(Nc3ccc(Br)cc3Cl)c(C(=O)NOCCO)cc21 [Selumetinib] + CCN(CCO)CCCOc1ccc2c(Nc3cc(CC(=O)Nc4cccc(F)c4)[nH]n3)ncnc2c1 [AZD2811] (first compound max 10 µM, 7x7, partner max 1 µM) | -0.0203 | -0.0104 | -0.0556 | 0.0812 | -0.0138 | 0.0986 | 0.0053 | -0.0364 | -0.0082 | 0.0388 | -0.0239 | -0.0151 | -0.0098 | -0.0522 | -0.001 | -0.0355 | -0.0735 | -0.0479 | -0.0544
Cn1cnc2c(F)c(Nc3ccc(Br)cc3Cl)c(C(=O)NOCCO)cc21 [Selumetinib] + C[C@@H]1COCCN1C2=NC(=NC(=C2)C3(CC3)[S@](=N)(=O)C)C4=C5C=CNC5=NC=C4 [AZD6738] (first compound max 10 µM, 7x7, partner max 10 µM) | -0.0217 | -0.0399 | -0.0316 | 0.0511 | 0.0023 | 0.0218 | 0.0735 | -0.0364 | -0.0019 | 0.046 | -0.0202 | 0.0782 | -0.112 | 0.1 | 0.012 | 0.0006 | -0.0576 | 0.1 | -0.0495
